According to patent US7258999B2, “PTH responsive gene” (Wyeth, priority 2002, dated 2007):

What was measured:
PAIGB expression = test: RADE differential display of rat tibia RNA after PTH administration; type: in vivo; conditions: eight days
Protocol: Total RNA was isolated and each RNA sample was then treated with 20 units of DNAse (Ambion, Austin, Tex.). After RNA cleaning, samples were split into three reverse transcription (RT) reactions. Each RT reaction contained 4 μg RNA, 1000 units SuperScript II RT (Gibco), 100 μM dNTPs and 0.2 μM anchor primer in a final volume of 100 μl. Anchor primers had the sequence (5′→3′) T11A, T11C, or T11G. For differential display each cDNA sample was subjected, in duplicate, to 80 PCR reactions using the appropriate anchor primer and one of 80 arbitrary primers (HAPs 1-80; Genhunter). PCR reactions contained in a final volume of 20 ul, 20 ng cDNA, 2 μM dNTPs, 0.2 μM anchor primer, 0.2 μM arbitrary primer, 1 unit Taq polymerase (Applied Biosystems (AB), Foster City, Calif.), and 2.5 μCi [α-^33P]dATP (2000 Ci/mmole). PCR conditions were as follows: 1 cycle of 92° C./2′, 40 cycles of [92° C./15″, 40° C./2′, 72° C./30″], and 1 cycle of 72° C./5′. PCR samples were then loaded onto a 50 cm 6% sequencing gel and run at 200 volts constant. Differentially expressed bands were excised from the dried gel. […]
Female Wister rats 4 weeks of age were treated with vehicle (saline) and human PTH (1-34) at a dose of 40 μg/kg of body weight for eight days. […] Three weeks post OVX total BMD was measured to determine if osteopenia was established. […]

PAIGB mRNA = test: In situ hybridization of PAIGB mRNA in mouse calvariae; type: in vivo; conditions: Swiss Webster mice, 100 μg/kg/day sc, 30 days
Protocol: In situ analysis of PAIGB mRNA expression can be assessed in various animal species including human bone biopsy samples or from mouse, rat, dog bone samples etc., that have been treated with bone forming agents. Swiss Webster mice that have been treated with 100 μg/kg/day PTH 1-34 subcutaneously or 30 days. Mouse calvariae were gently dissected and fixed in 4% paraformaldehyde. Following fixation, the bones were decalcified in TBD-2 decalcifying agent (Shandon Lipshaw, Pittsburgh, Pa.) for 7-8 hrs then dehydrated in graded alcohol. The calvariae was subsequently bisected perpendicular to the sagittal suture through the central portion of the parietal bones parallel to the lambdoidal and coronal sutures and embedded in paraffin (femur and tibia samples are embedded longitudinally in paraffin). Four to six 5 μm-thick representative, non-consecutive step sections were cut for further analysis. Selected sections were stained with hematoxylin and eosin (Shandon Lipshaw, Pittsburgh, Pa.) and adjacent section were used for in situ hybridization. […] The expression of mRNA are evaluated using a Nikon microscope with either bright or dark field.

human PTH (1-34)
PAIGB expression in bone RNA (RADE) (PAIGB expression; continuous administration, 40 μg/kg/day): did not induce any changes
PAIGB expression in bone RNA (RADE) (PAIGB expression; intermittent injection, 40 μg/kg): induced
PAIGB mRNA expression in calvariae (in situ hybridization) (PAIGB mRNA): induced in osteoblastic cells adjacent to the bone surface in the periosteum
